# Like-named read-outs stand apart in the source and are kept apart here.
# Key:
# Type in all cases: cell-based
# CatSper [1] = target: T1, CatSper (Homo sapiens, UniProt Q7RTX7+Q86XQ3+Q8NEC5+Q96P56); assay: Inhibition of P4-induced Ca2+ influx in human sperm (screen 2 inhibitors); settings: for Max P4 inhibition (%) (± SD): 3 independent experiments
# T1 construct: Motile spermatozoa were selected by a ‘swim-up’ procedure; endogenous in cells; host or cells: motile human spermatozoa (swim-up) from healthy donors
# Method: (§1) Briefly, motile spermatozoa were selected by swim-up and labeled with the fluorescent calcium indicator Fluo-4 a.m. to image changes in [Ca^2+]i. After centrifugation to remove excess dye, Fluo-4 AM loaded cells were distributed in a 384-wells plate to obtain ∼125,000 cells/well. After measuring basal fluorescence, a first injection of compounds was performed in order to evaluate their effect on [Ca^2+]i alone. This first screen is therefore considered as a screen to search for ‘activators’. Fluorescence was recorded for 12 min during which sperm cells were continuously exposed to compounds. P4 or PGE1 were then added in the same wells to evaluate whether the tested compounds can reduce the ligand-induced activation of CatSper. This second screen was therefore considered to be a search for CatSper ‘inhibitors’.
# (§2) Human semen samples were collected from healthy donors by masturbation after a recommended sexual abstinence period of minimum 2 days. Semen samples were allowed to liquefy at 37°C for 15–30 min. Motile spermatozoa were selected by a ‘swim-up’ procedure as previously described ([Strünker et al., 2011]). Briefly, 1 mL of semen was deposited in a 45°-inclined 50 mL Falcon tube with 4 mL of Human Tubular Fluid (HTF) medium containing: 93.8 mM NaCl, 4.7 mM KCl, 0.2 mM MgSO4, 0.37 mM KH2PO4, 2.04 mM CaCl2, 20.98 mM HEPES, 2.78 mM glucose, 21.4 mM Na-lactate, 4 mM NaHCO3, 0.33 mM Na-pyruvate, and the pH was adjusted to 7.35. Motile sperm were allowed to swim at 37°C for 1 hour. The supernatant was collected in 15 mL Falcon tubes and washed twice by centrifugation at 700 x g for 20 min. Sperm were supplemented with 3 mg/mL HSA. Written informed consent was obtained from all donors prior to donation and approved by the Cantonal Ethics Committee of the State of Geneva (CCER #14-147).
# (§3) Cells were loaded with the fluorescent Ca^2+ indicator Fluo-4 AM at a final concentration of 2.5 µM for 30 min at 37°C. Excess dye was washed via centrifugation at 700 x g for 20 min and sperm were resuspended in HTF medium to obtain a final concentration of 6.25 x 10^6 cells/mL. 20 μL of cells (corresponding to ∼125,000 cells) loaded with Fluo-4 a.m. were dispensed in a 384-wells plate (Corning, NY, United States) to allow fluorescence measurement. The dye was excited at 480 nm, and emission was recorded at 530 nm. The change in [Ca^2+]i was assessed simultaneously in all wells using a Functional Drug Screening System (FDSS/μCELL) (Hamamatsu Phototonics K.K., Yokohama, Japan) at 37°C. Basal fluorescence was first measured for 30 s. […] P4 and PGE1 were tested at a near-saturating concentration in the HTS in order to evaluate a potential additive or synergistic effect induced by the compounds. Non-specific CatSper inhibitor MDL 12330A was used as a negative control at final concentration of 20 µM while DMSO was used as a vehicle control. For alkalization-induced Ca^2+ measurement, NH4Cl was used as a positive control at a final concentration of 10 mM. Fluorescence was recorded for a total of 16.5 min: 30 s before injection, 12 min after the first injection of the tested compounds, and 4 min after the second injection of either P4 or PGE1. The Prestwick library was tested in technical duplicate. Ca^2+ response curves were normalized using the following formula F−F0/F0×100 , where F 0 is the average of the basal fluorescence prior to the addition of the compound of interest and F corresponds to the fluorescence value at each time point. The ∆F/F0 of the vehicle control (DMSO) was subtracted from all the other values to adjust for dilution and pipetting artifacts. The values of all compounds were normalized to their respective controls.
# CatSper [2] = target: T1, CatSper; assay: Steroid-induced increase in [Ca2+]i in human sperm (Fluo-4 HTS assay, screen 1 activators); settings: for Emax: read-out: Max amplitude (%) (± SD)
# Method: as §1
# Human semen samples were collected from healthy donors by masturbation after a recommended sexual abstinence period of minimum 2 days. Semen samples were allowed to liquefy at 37°C for 15–30 min. […] Motile sperm were allowed to swim at 37°C for 1 hour. The supernatant was collected in 15 mL Falcon tubes and washed twice by centrifugation at 700 x g for 20 min. Sperm were supplemented with 3 mg/mL HSA.
# as §3, with “20” for “Cells were loaded with the fluorescent Ca^2+ indicator Fluo-4 AM at a final concentration of 2.5 µM for 30 min at 37°C. Excess dye was washed via centrifugation at 700 x g for 20 min and sperm were resuspended in HTF medium to obtain a final concentration of 6.25 x 10^6 cells/mL. 20”, “Non-specific CatSper inhibitor MDL 12330A was used as a negative control at final concentration of 20 µM while DMSO was used as a vehicle control.” left out, “Fluorescence was recorded for a total of 16.5 min: 30 s before injection, 12 min after the first injection of the tested compounds, and 4 min after the second injection of either P4 or PGE1.” left out
# Data are shown as mean ± standard deviation (SD) with “n” referring to the number of independent experiments performed using sperm samples from ≥3 different donors. Statistical analysis and fitting of dose-response relations were performed using GraphPad Prism 8.1.1 (Prism, La Jolla, United States). To generate sigmoidal curves, the concentrations were converted to their respective log values, and the data were normalized using the following formula: 100⋅x/Fmax , where Fmax is the maximum value of the positive control. A four-parameter Hill equation with a variable Hill coefficient was fitted to generate the EC02, EC50, and IC50. Statistical significance between control and treated conditions was evaluated using a one-way analysis of variance (ANOVA), followed by Dunnett´s test. A p-value <0.05 was considered significant.
# CatSper [3] = target: T1, CatSper; assay: Inhibition of PGE1-induced Ca2+ influx in human sperm (screen 2 inhibitors)
# Method: as §1, §2, §3
# [4] = Mean IC50 (P4) µM (±SD), P4-induced response, pooled from 3 independent experiments
# [5] = EC50 (±SD), increase in [Ca2+]i, dose-response 90 µM to 0.3 nM
# [6] = Mean EC50 µM (±SD), pooled from 3 independent experiments
# [7] = maximal amplitude of steroid-induced [Ca2+]i increase, relative to P4, 3 independent experiments
# [8] = PGE1-induced response, pooled from 3 independent experiments, read-out: Mean IC50 (PGE1) µM (±SD)
# [9] = P4-induced response, pooled from 3 independent experiments, read-out: Mean IC50 (P4) µM (±SD)
# [10] = pooled from 3 independent experiments, read-out: Mean EC50 µM (±SD)
SMILES,Max P4 inhibition (%) (± SD) (CatSper [1]),IC50 (CatSper [1]; [4]) [µM],EC02 compared with reported maximum concentration in blood serum (CatSper [2]),EC50 (CatSper [2]; [5]) [µM],EC50 (CatSper [2]; [6]) [µM],Emax (CatSper [2]) [%],IC50 (CatSper [3]) [µM],"IC50 (CatSper [1]; IC50 (±SD), inhibition of P4-induced Ca2+ response, dose-response 90 µM to 0.3 nM) [µM]",effective concentrations as low as (dose-dependent increase in [Ca2+]i) (CatSper [2]) [nM],Emax (CatSper [2]; [7]) [%],IC50 (CatSper [3]; [8]) [µM],IC50 (CatSper [1]; [9]) [µM],Max amplitude (%) (± SD) (CatSper [2]; [7]),EC50 (CatSper [2]; [10]) [µM]
"CC(=O)O[C@H]1CC[C@@]2(C)C(=CC[C@@H]3[C@@H]2CC[C@]2(C)C(=O)CC[C@@H]32)C1 [Dehydroisoandosterone 3-acetate (DHEA), Dehydroisoandosterone 3-acetate]",82 (±6) %,1.69,EC02 below the reported maximum concentration found in blood serum,0.593,0.584,77,3.7,–,–,–,–,–,–,–
CC(=O)[C@H]1CC[C@H]2[C@@H]3C=CC4=CC(=O)CC[C@@]4(C)[C@@H]3CC[C@]12C [Dydrogesterone],94 (±4) %,0.24,EC02 below the reported maximum concentration found in blood serum,0.13,0.104,–,44.8,0.245,10,84,–,–,–,–
C[C@]12CC[C@@H](O)C[C@@H]1CC[C@@H]1[C@@H]2CC[C@]2(C)C(=O)CC[C@@H]12 [androsterone],61 (±6) %,2.11,–,–,1.02,70,5.38,–,–,–,–,–,–,–
CCCC1O[C@@H]2C[C@H]3[C@@H]4CCC5=CC(=O)C=C[C@]5(C)[C@H]4[C@@H](O)C[C@]3(C)[C@]2(C(=O)CO)O1 (some centres unmarked) [budesonide],3 (±8) %,–,–,–,–,–,–,–,–,7,> 100,–,–,–
C[C@]12CCC(=O)C=C1C=C[C@@H]1[C@@H]2CC[C@@]2(C)[C@H]1CC[C@@]2(O)CCC(=O)[O-].[K+] [canrenoic acid potassium salt],27 (±10) %,–,–,–,–,–,–,–,–,–,16.3,23.2,34 (±2) %,23.4
CC(=O)O[C@]1(C(C)=O)CC[C@H]2[C@@H]3C=C(Cl)C4=CC(=O)CC[C@]4(C)[C@H]3CC[C@@]21C [chlormadinone acetate],0 (±15) %,–,–,–,–,–,–,–,–,4,38.4,–,–,34.7
C#C[C@]1(O)CC[C@H]2[C@@H]3CCc4cc(O)ccc4[C@H]3CC[C@@]21C [ethinylestradiol],50 (±14) %,–,–,–,–,–,–,–,–,69,6.68,3.36,–,1.8
C#C[C@]1(OC(C)=O)CC[C@H]2[C@@H]3CCC4=C[C@@H](OC(C)=O)CC[C@@H]4[C@H]3CC[C@@]21C [ethynodiol diacetate],22 (±14) %,–,–,–,–,–,–,–,–,35,12.2,13.9,–,17.7
CC(C)(C)NC(=O)[C@H]1CC[C@H]2[C@@H]3CC[C@H]4NC(=O)C=C[C@]4(C)[C@H]3CC[C@]12C [finasteride],18 (±6) %,–,–,–,–,–,–,–,–,39,> 100,–,–,0.78

# From article PMC10397409, “The action of physiological and synthetic steroids on the calcium channel CatSper in human sperm” (Frontiers in Cell and Developmental Biology, 2023)
